For 24 molecules, IC50, Activity and inhibition results are on record in ChEMBL document CHEMBL2440005, “Discovery and structure-activity relationships of 6-(benzoylamino)benzoxaboroles as orally active anti-inflammatory agents” (Bioorg Med Chem Lett, 2013).

Data set [1] concerns PBMC. In words: Antiinflammatory activity in human PBMC assessed as inhibition of LPS-induced IL-1beta release incubated for 15 mins prior to LPS-challenge measured after 24 hrs by HTRF assay. The format is functional, cell-based. Background: Time-resolved FRET reads energy transfer from a long-lived donor to a nearby acceptor.
In data set [2] the test system is PBMC. As to the kind of experiment: Antiinflammatory activity in human PBMC assessed as inhibition of LPS-induced TNFalpha release incubated for 15 mins prior to LPS-challenge measured after 24 hrs by HTRF assay. The format is functional, cell-based.
In data set [3] the test system is PBMC. In words: Antiinflammatory activity in human PBMC assessed as inhibition of LPS-induced IL-6 release incubated for 15 mins prior to LPS-challenge measured after 24 hrs by HTRF assay. The format is functional, cell-based.
In data set [4] the test system is Mus musculus. In words: Toxicity in mouse assessed as change in body weight at 3 mg/kg, po qd after 20 days relative to untreated control. As to conditions: in vivo, 480 h. The class given is organism-based. Further details: dose 3 mg/kg, route oral.
Data set [5] has as its system Mus musculus. In words: Antiinflammatory activity in collagen-induced arthritis mouse model at 3 mg/kg, po qd after 20 days. Also noted: dose 3 mg/kg. The class given is functional, organism-based.

Structures are written as SMILES. Calls of active or inactive are those of the source. No cut-off for these calls is given here.

For `OB1OCc2ccc(NCc3ccccc3C(F)(F)F)cc21`, the IC50 in data set [1], in data set [2] and in data set [3] was above 10 µM in each case.

Consider `O=C(Nc1ccc2c(c1)B(O)OC2)c1cccc(Cl)c1F`, for which the IC50 in data set [1], in data set [2] and in data set [3] was above 100 µM in each case.

Consider `O=C(Nc1ccc2c(c1)B(O)OC2)c1c(F)cccc1Cl`, for which the IC50 (commonly the midpoint of a concentration-inhibition curve) in data set [1] came out at 3.1 µM; in data set [2] it was 15 µM; in data set [3], 4.9 µM.

Turning to `O=C(Nc1ccc2c(c1)B(O)OC2)c1cccc(C(F)(F)F)c1F`, the concentration for half-maximal inhibition (IC50) was above 100 µM in data set [1], 99 µM in data set [2] and above 100 µM in data set [3].

With `O=C(Nc1ccc2c(c1)B(O)OC2)c1ccccc1C(F)(F)F`, the results for the IC50 in data set [1], in data set [2] and in data set [3] were 2.1 µM, 7.2 µM and 4.4 µM, respectively.

Turning to `Cc1ccccc1C(=O)Nc1ccc2c(c1)B(O)OC2`, the IC50 in data set [1], in data set [2] and in data set [3] was above 100 µM in each case.

In the case of `C[C@]12C=CC(=O)C=C1CC[C@@H]1[C@@H]2[C@@H](O)C[C@@]2(C)[C@H]1CC[C@]2(O)C(=O)CO` [PREDNISOLONE], the Activity result in data set [4] is “Non-toxic”. Moreover, the inhibition result in data set [5] was “Active”.

Turning to `O=C(Nc1ccc2c(c1)B(O)OC2)c1ccc(F)cc1C(F)(F)F`, the concentration for half-maximal inhibition (IC50) in data set [1] is 3.2 µM; in data set [2], 13 µM; in data set [3], 5.6 µM.

Turning to `O=C(Nc1ccc2c(c1)B(O)OC2)c1ccccc1OC(F)(F)F`, the IC50 in data set [1], in data set [2] and in data set [3] was above 100 µM throughout.

As for `O=C(Nc1ccc2c(c1)B(O)OC2)c1ccccc1F`, the values for the IC50 in data set [1], in data set [2] and in data set [3] were above 10 µM, above 100 µM and above 10 µM, respectively.

Regarding `O=S(=O)(Nc1ccc2c(c1)B(O)OC2)c1ccccc1C(F)(F)F`, the IC50 in data set [1], in data set [2] and in data set [3] was above 10 µM each time.

For `O=C(Nc1ccc2c(c1)B(O)OC2)c1ccccc1-c1ccccc1`, the concentration for half-maximal inhibition (IC50) in data set [1], in data set [2] and in data set [3] was above 100 µM in each case.

Turning to `O=C(Nc1ccc2c(c1)B(O)OC2)c1cc(C(F)(F)F)ccc1C(F)(F)F`, the concentration for half-maximal inhibition (IC50) in data set [1] was found to be 2 µM; in data set [2], 6.3 µM; in data set [3] it was 3 µM.

For the molecule `O=C(Nc1ccc2c(c1)B(O)OC2)c1ccccc1`, the half-inhibitory concentration (IC50) in data set [1], in data set [2] and in data set [3] was above 100 µM throughout.

For the molecule `O=C(Nc1ccc2c(c1)B(O)OC2)Nc1ccccc1C(F)(F)F`, the concentration for half-maximal inhibition (IC50) in data set [1], in data set [2] and in data set [3] was above 10 µM in each case.

With `O=C(Nc1ccc2c(c1)B(O)OC2)c1ccc(C(F)(F)F)cc1F`, the IC50 in data set [1], in data set [2] and in data set [3] was above 100 µM each time.

As for `O=C(Nc1ccc2c(c1)B(O)OC2)c1c(F)cccc1C(F)(F)F`, the IC50 in data set [1] is 0.18 µM; in data set [2], 1.2 µM; in data set [3], 0.37 µM.

Consider `COc1ccccc1C(=O)Nc1ccc2c(c1)B(O)OC2`, for which the IC50 was above 100 µM in data set [1], 36 µM in data set [2] and above 100 µM in data set [3].

For the molecule `O=C(Nc1ccc2c(c1)B(O)OC2)c1ccc(C(F)(F)F)cc1`, the 50% inhibitory concentration (IC50) in data set [1], in data set [2] and in data set [3] was above 100 µM throughout.

Take `O=C(Nc1ccc2c(c1)B(O)OC2)c1ccc(C(F)(F)F)cc1C(F)(F)F`: the IC50 is 5.3 µM in data set [1], 10 µM in data set [2] and 8.3 µM in data set [3].

For `O=C(Nc1ccc2c(c1)B(O)OC2)c1cc(F)ccc1C(F)(F)F`, the IC50 came to 11 µM in data set [1], 28 µM in data set [2] and 8.2 µM in data set [3].

For `O=C(Nc1ccc2c(c1)B(O)OC2)c1cccc(C(F)(F)F)c1`, the IC50 in data set [1], in data set [2] and in data set [3] was above 10 µM in each case.

Take `O=C(Nc1ccc2c(c1)B(O)OC2)c1cc(C(F)(F)F)ccc1F`: the 50% inhibitory concentration (IC50) in data set [1], in data set [2] and in data set [3] was above 100 µM throughout.

On to `O=C(Nc1ccc2c(c1)B(O)OC2)c1ccccc1Cl`, for which the IC50 in data set [1], in data set [2] and in data set [3] was above 100 µM in each case.
